The text below walks through data of ChEMBL document CHEMBL1926625, “Identification of benzoxazin-3-one derivatives as novel, potent, and selective nonsteroidal mineralocorticoid receptor antagonists” (J Med Chem, 2011).

Series [1] deals with T1, Glucocorticoid receptor (Homo sapiens, UniProt P04150).
T1 sequence (P04150 whole entry): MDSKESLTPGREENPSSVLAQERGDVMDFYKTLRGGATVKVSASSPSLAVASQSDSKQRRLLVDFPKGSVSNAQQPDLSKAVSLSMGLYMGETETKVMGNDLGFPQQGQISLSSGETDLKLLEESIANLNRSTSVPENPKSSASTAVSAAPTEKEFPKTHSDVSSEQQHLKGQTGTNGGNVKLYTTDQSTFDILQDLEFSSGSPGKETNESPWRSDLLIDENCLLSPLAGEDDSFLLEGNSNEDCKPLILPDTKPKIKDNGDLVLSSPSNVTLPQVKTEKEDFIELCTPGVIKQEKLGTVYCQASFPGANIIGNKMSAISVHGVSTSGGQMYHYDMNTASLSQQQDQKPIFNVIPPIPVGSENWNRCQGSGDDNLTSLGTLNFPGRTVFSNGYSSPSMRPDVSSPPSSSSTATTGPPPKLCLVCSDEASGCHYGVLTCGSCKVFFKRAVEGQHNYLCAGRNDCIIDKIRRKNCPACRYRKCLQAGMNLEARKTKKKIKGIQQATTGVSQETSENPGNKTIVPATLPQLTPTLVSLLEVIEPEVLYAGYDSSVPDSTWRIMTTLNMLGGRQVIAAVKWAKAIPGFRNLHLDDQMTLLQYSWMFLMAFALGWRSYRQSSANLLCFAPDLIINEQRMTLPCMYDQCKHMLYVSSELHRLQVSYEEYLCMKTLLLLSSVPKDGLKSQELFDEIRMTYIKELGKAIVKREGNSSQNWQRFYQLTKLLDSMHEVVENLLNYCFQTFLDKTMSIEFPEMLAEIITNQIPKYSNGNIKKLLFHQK
The experiment in a line: Displacement of [3H]dexomethasone from GR.

Series [2] addresses T2, Androgen receptor (Homo sapiens, UniProt P10275).
T2 sequence (P10275 whole entry): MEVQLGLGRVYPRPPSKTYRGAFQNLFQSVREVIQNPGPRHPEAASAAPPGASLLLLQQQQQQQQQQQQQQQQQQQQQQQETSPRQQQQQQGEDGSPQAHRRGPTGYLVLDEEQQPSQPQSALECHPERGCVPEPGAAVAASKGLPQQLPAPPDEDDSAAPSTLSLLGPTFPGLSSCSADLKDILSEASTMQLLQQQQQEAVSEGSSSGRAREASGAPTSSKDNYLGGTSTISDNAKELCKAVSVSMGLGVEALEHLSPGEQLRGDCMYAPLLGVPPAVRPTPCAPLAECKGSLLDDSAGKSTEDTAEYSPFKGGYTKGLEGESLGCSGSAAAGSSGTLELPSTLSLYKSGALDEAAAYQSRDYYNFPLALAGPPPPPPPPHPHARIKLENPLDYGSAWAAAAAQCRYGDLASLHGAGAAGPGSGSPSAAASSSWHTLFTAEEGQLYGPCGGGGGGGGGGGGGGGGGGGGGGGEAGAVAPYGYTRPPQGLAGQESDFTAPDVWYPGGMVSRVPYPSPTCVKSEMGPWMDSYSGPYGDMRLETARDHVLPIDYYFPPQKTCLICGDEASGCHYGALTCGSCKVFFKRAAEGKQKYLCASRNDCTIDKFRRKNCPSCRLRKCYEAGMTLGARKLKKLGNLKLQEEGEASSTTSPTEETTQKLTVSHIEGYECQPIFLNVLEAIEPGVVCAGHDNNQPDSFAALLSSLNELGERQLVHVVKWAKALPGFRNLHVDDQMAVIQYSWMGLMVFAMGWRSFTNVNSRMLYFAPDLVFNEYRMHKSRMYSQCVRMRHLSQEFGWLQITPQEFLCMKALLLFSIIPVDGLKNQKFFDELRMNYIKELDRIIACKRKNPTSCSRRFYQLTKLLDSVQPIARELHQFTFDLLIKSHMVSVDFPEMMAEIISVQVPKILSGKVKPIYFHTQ
The experiment in a line: Displacement of [3H]testosterone from AR. For orientation: Loss of bound radioactivity is the signal in a displacement assay; it reports binding, not function.

For series [3], the target named is T3, Progesterone receptor (Homo sapiens, UniProt P06401).
T3 sequence (P06401 whole entry): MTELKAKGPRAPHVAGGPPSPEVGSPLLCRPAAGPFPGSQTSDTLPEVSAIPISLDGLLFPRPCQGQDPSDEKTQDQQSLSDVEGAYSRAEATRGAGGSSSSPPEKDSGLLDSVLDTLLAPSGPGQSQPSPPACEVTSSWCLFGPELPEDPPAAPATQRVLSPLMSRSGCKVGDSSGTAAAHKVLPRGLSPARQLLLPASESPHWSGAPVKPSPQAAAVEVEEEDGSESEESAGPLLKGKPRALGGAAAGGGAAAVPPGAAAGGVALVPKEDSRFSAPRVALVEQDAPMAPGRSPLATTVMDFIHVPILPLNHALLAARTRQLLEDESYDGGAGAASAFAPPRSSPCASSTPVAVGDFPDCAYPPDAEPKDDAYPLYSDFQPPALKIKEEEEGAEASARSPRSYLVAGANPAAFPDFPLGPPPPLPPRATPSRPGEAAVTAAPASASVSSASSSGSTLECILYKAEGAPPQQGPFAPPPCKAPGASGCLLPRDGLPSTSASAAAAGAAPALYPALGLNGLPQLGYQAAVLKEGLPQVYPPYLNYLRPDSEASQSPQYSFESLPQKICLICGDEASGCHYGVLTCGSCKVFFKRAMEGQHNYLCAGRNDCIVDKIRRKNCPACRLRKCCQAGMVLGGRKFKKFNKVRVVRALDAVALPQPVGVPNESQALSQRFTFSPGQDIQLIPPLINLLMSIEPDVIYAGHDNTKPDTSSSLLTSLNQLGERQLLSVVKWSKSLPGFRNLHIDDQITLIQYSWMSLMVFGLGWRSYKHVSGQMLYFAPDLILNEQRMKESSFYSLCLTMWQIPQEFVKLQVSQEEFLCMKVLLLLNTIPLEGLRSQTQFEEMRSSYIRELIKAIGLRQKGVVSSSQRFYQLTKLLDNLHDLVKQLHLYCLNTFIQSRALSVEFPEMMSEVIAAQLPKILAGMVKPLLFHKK
Description: Displacement of [3H]progesterone from PR.

Series [4] is described as follows: Clearance in rat liver microsomes at 1 umol/L preincubated for 5 mins measured after 60 mins by UV analysis. The class given is ADME, Microsome. For orientation: Liver microsomes are vesicles of endoplasmic reticulum, rich in cytochrome P450 enzymes.
Series [5] addresses T4, Mineralocorticoid receptor (Homo sapiens, UniProt P08235).
T4 sequence (P08235 whole entry): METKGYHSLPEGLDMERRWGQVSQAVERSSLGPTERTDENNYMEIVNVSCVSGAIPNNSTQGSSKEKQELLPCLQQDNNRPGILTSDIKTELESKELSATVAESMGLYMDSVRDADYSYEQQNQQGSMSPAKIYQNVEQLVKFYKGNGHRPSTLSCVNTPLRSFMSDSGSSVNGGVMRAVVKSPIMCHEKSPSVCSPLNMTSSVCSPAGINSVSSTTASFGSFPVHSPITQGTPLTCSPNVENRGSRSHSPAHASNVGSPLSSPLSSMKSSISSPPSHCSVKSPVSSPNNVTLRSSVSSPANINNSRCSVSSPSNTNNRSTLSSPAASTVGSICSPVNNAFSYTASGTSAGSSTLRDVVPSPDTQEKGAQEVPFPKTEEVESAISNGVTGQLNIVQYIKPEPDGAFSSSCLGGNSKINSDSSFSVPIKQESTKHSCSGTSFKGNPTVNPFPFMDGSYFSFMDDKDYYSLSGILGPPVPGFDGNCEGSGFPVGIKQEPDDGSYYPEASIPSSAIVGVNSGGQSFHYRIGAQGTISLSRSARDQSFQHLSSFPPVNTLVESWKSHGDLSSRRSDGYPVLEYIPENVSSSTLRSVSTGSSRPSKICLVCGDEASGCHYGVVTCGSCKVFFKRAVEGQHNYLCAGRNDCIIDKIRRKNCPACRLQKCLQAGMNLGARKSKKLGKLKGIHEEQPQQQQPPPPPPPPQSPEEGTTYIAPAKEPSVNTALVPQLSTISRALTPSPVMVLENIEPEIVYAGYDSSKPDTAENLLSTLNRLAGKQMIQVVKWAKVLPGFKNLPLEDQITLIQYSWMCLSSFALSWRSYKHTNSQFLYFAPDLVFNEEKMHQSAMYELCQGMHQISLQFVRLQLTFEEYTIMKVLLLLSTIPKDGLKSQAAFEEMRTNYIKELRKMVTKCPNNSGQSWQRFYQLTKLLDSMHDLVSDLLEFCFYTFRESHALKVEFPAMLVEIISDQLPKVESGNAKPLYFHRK
The experiment in a line: biochemical.
Description: Displacement of [3H]aldosterone from cytosolic human MR expressed in HEK293 cells after 16 hrs by scintillation counting

Series [6] is described as follows: Bioavailability in Sprague-Dawley rat at 3 mg/kg, iv and 10 mg/kg, po. The format is ADME, organism-based. The following applies: in vivo.

The structures appear in SMILES notation.

Regarding `O=C1COc2ccc(C3=Nn4cnnc4SC3c3ccc(F)cc3)cc2N1` (stereo not drawn), the IC50 in series [1] was greater than 10 µM; in series [2] it was greater than 10 µM; in series [3] it was greater than 10 µM; in series [5], 0.27 µM. The molecule also registered an intrinsic metabolic clearance (microsomal CLint) at 1 µM in series [4] of 60 µL/min/mg.

Take `Cc1cc(-c2ccc3c(c2)NC(=O)CO3)n(-c2ccc(F)cc2)n1`: the IC50 was 6.9 µM in series [1], greater than 10 µM in series [2], greater than 10 µM in series [3] and 1.1 µM in series [5]. In series [4], this molecule came in with a microsomal CLint at 1 µM of 164 µL/min/mg.

With `O=C1COc2ccc(-c3cc(C(F)(F)F)nn3-c3ccc(F)cc3)cc2N1`, in series [4], the microsomal CLint at 1 µM came out at 24 µL/min/mg. The same molecule gave a bioavailability in series [6] of 28%. Also, in series [5], the IC50 is 0.26 µM.

Broadly, the IC50 is the point on the concentration scale where inhibition reaches its midpoint. A lower IC50 goes with greater potency. What is called microsomal CLint is the capacity of the preparation to metabolise the compound, expressed as a volume cleared per time. Lower therefore signals slow turnover. What is called bioavailability is dose-corrected exposure relative to a reference, in per cent. Read a low bioavailability as poor availability.
